{
  "source": "patent US5281738A",
  "about": "“bis[4-(2,6-di-alkyl)phenol]silane derivatives as antiatherosclerotic agents” (Merrell Dow Pharmaceuticals Inc., priority 1992, dated 1994)",
  "system": "human LDL (LDL lipid peroxidation)",
  "assay": "Inhibition of LDL lipid peroxidation (cupric sulfate-induced, thiobarbituric acid assay)",
  "assay_type": "biochemical",
  "settings": "250 μg human LDL, compound preincubated 30 min at 42 °C, cupric sulfate 12.5 μM final, 37 °C, 2.5 hours, read-out: ID50 (concentration of test compound required to inhibit 50% of LDL lipid peroxidation)",
  "protocol": "The degree of inhibition of LDL lipid peroxidation was determined by the method of Yagi et al. [Vitamins 39, 105 (1968)].\nA 0.5 mL solution containing 250 micrograms (μg) of human LDL was incubated with the test compound, in amounts varying from 0 to 30 μg, for 30 minutes at 42° C. To this mixture was added 1 mL of a cupric sulfate solution (final concentration 12.5 μM) and the mixture was incubated at 37° C. for 2.5 hours. The amount of peroxidation of LDL lipid was determined by the thiobarbituric acid assay. The concentration of test compound required to inhibit 50% of LDL lipid peroxidation (ID50) was determined.",
  "data": [
    {"smiles": "CC(C)(C)c1cc(SC[Si](C)(C)CSc2cc(C(C)(C)C)c(O)c(C(C)(C)C)c2)cc(C(C)(C)C)c1O", "note": "[Compound A, 4,4'-[(Dimethylsilylene)bis(methylenethio)]-bis[2,6-di-t-butyl]phenol]", "values": [
      {"measurement": "IC50", "result": 9.5, "unit": "µM"}
    ]}
  ]
}
